According to patent publication US20160355483A1, “COMPOUND BINDING TO PPARG BUT NOT ACTING AS PROMOTER AND PHARMACEUTICAL COMPOSITION FOR TREATING PPARG-RELATED DISEASES CONTAINING SAME AS ACTIVE INGREDIENT” (Hyundai Pharm Co., Ltd., priority 2014, published 2016):

Target: T1, PPARG (peroxisome proliferator activated receptor-gamma), GST-PPARG-LBD (Homo sapiens, UniProt P37231)
T1 construct: 15 μL of 5 nM GST-PPARG-LBD and 5 nM Tb-GST-antibody were added; purchased Invitrogen PV4894
T1 sequence (P37231 238-503 limits assumed): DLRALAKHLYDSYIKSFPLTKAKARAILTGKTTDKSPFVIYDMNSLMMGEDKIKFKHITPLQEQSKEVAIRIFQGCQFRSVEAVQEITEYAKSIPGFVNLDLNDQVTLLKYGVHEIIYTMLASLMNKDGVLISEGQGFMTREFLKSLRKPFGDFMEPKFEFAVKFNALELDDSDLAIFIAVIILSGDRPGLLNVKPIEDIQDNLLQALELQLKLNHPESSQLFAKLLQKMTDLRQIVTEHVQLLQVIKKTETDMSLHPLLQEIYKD
Assay: LanthaScreen TR-FRET PPARG Competitive Binding Assay
Parameters: key: “+” indicates the degree of the binding activity, and as the number of “+” increases, the binding activity is stronger; ++: “+” indicates the degree of the binding activity, and as the number of “+” increases, the binding activity is stronger; +++: “+” indicates the degree of the binding activity, and as the number of “+” increases, the binding activity is stronger; ++++: “+” indicates the degree of the binding activity, and as the number of “+” increases, the binding activity is stronger
Settings: degree of binding activity
Method: The following experiment was performed to evaluate the PPARG (peroxisome proliferator activated receptor-gamma) binding capacity and transcriptional activity of the compounds prepared in the examples of the invention. For the experiment, LanthaScreen™ TR-FRET PPARG Competitive Binding Assay Kit (PV4894, Invitrogen) was used according to the manufacturer's instruction. […] The mixture was loaded in a 384-well plate (Greiner, 784075) by 20 μL per well, followed by reaction at room temperature for 1 hour. Upon completion of the reaction, fluorescence value was measured by using Flexstation 3 (Molecular Devices) with time-resolved fluorescence (RFU) mode (excitation 1: 340 nm, emission 1: 518 nm, excitation 2: 340 nm, emission 2: 488 nm, integration delay 50 μs, integration 400 μs). The results were calculated by using 518 nm RFUs/488 nm RFUs ratio. The activity of the compounds of the invention was compared with that of the vehicle, which was calculated by ratio according to the formula [100%−compound of the example ratio/vehicle ratio]. At this time, the binding activity ratio to rosiglitazone was compared.

| Binding assay (1 μLM) | SMILES |
| --- | --- |
| +++ | C[C@H](NC(=O)c1ccc2c(c1)CCCN2Cc1ccc(-c2ccccc2C(=O)O)cc1)c1ccccc1 [Example 1, (S)-4′-((6-((1-phenylethyl)carbamoyl)-3,4-dihydroquinoline-1(2H)-yl)methyl)-[1,1′-biphenyl]-2-carboxylic acid] |
| +++ | C[C@H](NC(=O)c1ccc2c(c1)CCCN2Cc1ccc(-c2ccccc2C(N)=O)cc1)c1ccccc1 [Example 2, (S)-1-((2′-carbamoyl-[1,1′-biphenyl]-4-yl)methyl)-N-(1-phenylethyl)-1,2,3,4-tetrahydroquinoline-6-carboxamide] |
| + | C[C@H](NC(=O)c1ccc2c(c1)CCCN2Cc1ccc(-c2ccccc2C(=O)O)cc1)c1ccc([N+](=O)[O-])cc1 [Example 3, (S)-4′-((6-((1-(4-nitrophenyl)ethyl)carbamoyl)-3,4-dihydroquinoline-1(2H)-yl)methyl)-[1,1′-biphenyl]-2-caboxylic acid] |
| +++ | Cc1cc(F)ccc1[C@H](C)NC(=O)c1ccc2c(c1)CCCN2Cc1ccc(-c2ccccc2C(=O)O)cc1 [Example 4, (S)-4′-((6-((1-(4-fluoro-2-methylphenyl)ethyl)carbamoyl)-3,4-dihydroquinoline-1(2H)-yl)methyl)-[1,1′-biphenyl]-2-carboxylic acid] |
| ++ | Cc1ccc([C@H](C)NC(=O)c2ccc3c(c2)CCCN3Cc2ccc(-c3ccccc3C(=O)O)cc2)cc1F [Example 5, (S)-4′-((6-((1-(3-fluoro-4-methylphenyl)ethyl)carbamoyl)-3,4-dihydroquinoline-1(2H)-yl)methyl)-[1,1′-biphenyl]-2-caboxylic acid] |
| +++ | C[C@H](NC(=O)c1ccc2c(c1)CCCN2Cc1ccc(-c2ccccc2C(=O)O)cc1)c1ccc(F)cc1 [Example 6, (S)-4′-((6-((1-(4-fluorophenyl)ethyl)carbamoyl)-3,4-dihydroquinoline-1(2H)-yl)methyl)-[1,1′-biphenyl]-2-caboxylic acid] |
| ++++ | C[C@H](NC(=O)c1ccc2c(c1)CCCN2Cc1ccc(-c2ccccc2C(=O)O)cc1)c1ccc(Br)cc1 [Example 7, (S)-4′-((6-((1-(4-bromophenyl)ethyl)carbamoyl)-3,4-dihydroquinoline-1(2H)-yl)methyl)-[1,1′-biphenyl]-2-caboxylic acid] |
| +++ | O=C(NCc1ccc([N+](=O)[O-])cc1)c1ccc2c(c1)CCCN2Cc1ccc(-c2ccccc2C(=O)O)cc1 [Example 8, 4′-((6-((4-nitrobenzyl)carbamoyl)-3,4-dihydroquinoline-1(2H)-yl)methyl)-[1,1′-biphenyl]-2-carboxylic acid] |
| ++++ | C[C@H](NC(=O)c1ccc2c(c1)CCCN2Cc1ccc(-c2ccccc2C(=O)O)cc1)c1cccc(Cl)c1 [Example 9, (S)-4′-((6-((1-(3-chlorophenyl)ethyl)carbamoyl)-3,4-dihydroquinoline-1(2H)-yl)methyl)-[1,1′-biphenyl]-2-caboxylic acid] |
| +++ | C[C@H](NC(=O)c1ccc2c(c1)CCCN2Cc1ccc(-c2ccccc2C(=O)O)cc1)c1cccc2ccccc12 [Example 10, (S)-4′-((6-((1-(naphthalene-1-yl)ethyl)carbamoyl)-3,4-dihydroquinoline-1(2H)-yl)methyl)-[1,1′-biphenyl]-2-carboxylic acid] |
| ++++ | C[C@H](NC(=O)c1ccc2c(c1)CCCN2Cc1ccc(-c2ccccc2C(=O)O)cc1)c1ccc(OC(F)(F)F)cc1 [Example 11, (s)-4′-((6-((1-(4-(trifluoromethoxy)phenyl)ethyl)carbamoyl)-3,4-dihydroquinoline-1(2H)-yl)methyl)-[1,1′-biphenyl]-2-carboxylic acid] |
| ++++ | C[C@H](NC(=O)c1ccc2c(c1)CCCN2Cc1ccc(-c2ccccc2C(=O)O)cc1)c1ccc(C(F)(F)F)cc1 [Example 12, (S)-4′-((6-((1-(4-(trifluoromethyl)phenyl)ethyl)carbamoyl)-3,4-dihydroquinoline-1(2H)-yl)methyl)-[1,1′-biphenyl]-2-carboxylic acid] |
| ++++ | C[C@H](NC(=O)c1ccc2c(c1)CCCN2Cc1ccc(-c2ccccc2C(=O)O)cc1)c1ccc(SC(F)(F)F)cc1 [Example 13, (S)-4′-((6-((1-(4-((trifluoromethyl)thio)phenyl)ethyl)carbamoyl)-3,4-dihydroquinoline-1 (2H)-yl)methyl)-[1,1′-biphenyl]-2-carboxylic acid] |
| + | O=C(NC1COc2ccccc2C1)c1ccc2c(c1)CCCN2Cc1ccc(-c2ccccc2C(=O)O)cc1 (stereo not drawn) [Example 15, 4′-((6-(cromene-3-ylcarbamoyl)-3,4-dihydroquinoline-1(2H)-yl)methyl)-[1,1′-biphenyl]-2-carboxylic acid] |
| +++ | C[C@H](NC(=O)c1ccc2c(c1)CCCN2Cc1ccc(-c2ccccc2C(=O)O)cc1)c1c(F)cccc1F [Example 16, (S)-4′-((6-((1-(2,6-fluorophenyl)ethyl)carbamoyl)-3,4-dihydroquinoline-1 (2H)-yl)methyl)-[1,1′-biphenyl]-2-carboxylic acid] |
| +++ | C[C@H](NC(=O)c1ccc2c(c1)CCCN2Cc1ccc(-c2ccccc2C(=O)O)cc1)c1cccc(F)c1 [Example 17, (S)-4′-((6-((1-(3-fluorophenyl)ethyl)carbamoyl)-3,4-dihydroquinoline-1(2H)-yl)methyl)-[1,1′-biphenyl]-2-caboxylic acid] |
| +++ | C[C@H](NC(=O)c1ccc2c(c1)CCCN2Cc1ccc(-c2ccccc2C(=O)O)cc1)c1cccc(OC(F)(F)F)c1 [Example 18, (S)-4′-((6-((1-(3-(trifluoromethoxy)phenyl)ethyl)carbamoyl)-3,4-dihydroquinoline-1(2H)-yl)methyl)-[1,1′-biphenyl]-2-carboxylic acid] |
| +++ | C[C@H](NC(=O)c1ccc2c(c1)CCCN2Cc1ccc(-c2ccccc2C(=O)O)cc1)c1cccc(C(F)(F)F)c1 [Example 19, (S)-4′-((6-((1-(3-(trifluoromethyl)phenyl)ethyl)carbamoyl)-3,4-dihydroquinoline-1(2H)-yl)methyl)-[1,1′-biphenyl]-2-carboxylic acid] |
| ++++ | C[C@H](NC(=O)c1ccc2c(c1)CCCN2Cc1ccc(-c2ccccc2C(=O)O)cc1)c1ccc2ccccc2c1 [Example 20, (S)-4′-((6-((1-(naphthalene-2-yl)ethyl)carbamoyl)-3,4-dihydroquinoline-1(2H)-yl)methyl)-[1,1′-biphenyl]-2-carboxylic acid] |
| +++ | C[C@H](NC(=O)c1ccc2c(c1)CCCN2Cc1ccc(-c2ccccc2C(=O)O)cc1)c1ccc(F)c(F)c1 [Example 21, (S)-4′-((6-((1-(3,4-fluorophenyl)ethyl)carbamoyl)-3,4-dihydroquinoline-1 (2H)-yl)methyl)-[1,1′-biphenyl]-2-carboxylic acid] |
| +++ | COc1cccc([C@H](C)NC(=O)c2ccc3c(c2)CCCN3Cc2ccc(-c3ccccc3C(=O)O)cc2)c1 [Example 22, (S)-4′-((6-((1-(3-methoxyphenyl)ethyl)carbamoyl)-3,4-dihydroquinoline-1(2H)-yl)methyl)-[1,1′-biphenyl]-2-caboxylic acid] |
